This is an account of results in US20260234131A1, “THERAPEUTIC ALKALOID COMPOUNDS” (Sensorium Therapeutics, Inc., priority 2023, published 2026).

One series deals with T1, SERT (Homo sapiens, UniProt P31645).
T1 construct: expressed in transfected cells
The experiment in a line: SERT inhibition assay (Neurotransmitter Transportation Fluorescence assay, stable 5HTT cells). The series is classed as cell-based. Conditions: for IC50 ratio to (−) mesembrine: SERT assay IC50 relative to (−) mesembrine; for IC50: stable 5HTT cells, 30 minutes at 37° C., fluorescence uptake kit, read-out: SERT Assay Potency Range. The procedure:
SERT inhibition can be measured using a Neruotransmitter Transportation Fluorescence assay. Briefly, stable 5HTT cells were prepared in a 384 microwell plate. Compounds were prepared by in assay buffer (20 mM HEPES, 0.1% BSA). The compounds were added to the plated cells and incubated for 30 minutes at 37° C. 25 μL of dye solution (Molecular Devices Neurotransmitter Transporter Uptake Assay Kit) is added per well and incubated for 30 minutes at 37° C. The plates are then read on a plate reader.

For series [1] the following is noted: pharmacokinetics described for (−) mesembrine; species not given; cited from earlier work.

T1 sequence (P31645 whole entry, species assumed): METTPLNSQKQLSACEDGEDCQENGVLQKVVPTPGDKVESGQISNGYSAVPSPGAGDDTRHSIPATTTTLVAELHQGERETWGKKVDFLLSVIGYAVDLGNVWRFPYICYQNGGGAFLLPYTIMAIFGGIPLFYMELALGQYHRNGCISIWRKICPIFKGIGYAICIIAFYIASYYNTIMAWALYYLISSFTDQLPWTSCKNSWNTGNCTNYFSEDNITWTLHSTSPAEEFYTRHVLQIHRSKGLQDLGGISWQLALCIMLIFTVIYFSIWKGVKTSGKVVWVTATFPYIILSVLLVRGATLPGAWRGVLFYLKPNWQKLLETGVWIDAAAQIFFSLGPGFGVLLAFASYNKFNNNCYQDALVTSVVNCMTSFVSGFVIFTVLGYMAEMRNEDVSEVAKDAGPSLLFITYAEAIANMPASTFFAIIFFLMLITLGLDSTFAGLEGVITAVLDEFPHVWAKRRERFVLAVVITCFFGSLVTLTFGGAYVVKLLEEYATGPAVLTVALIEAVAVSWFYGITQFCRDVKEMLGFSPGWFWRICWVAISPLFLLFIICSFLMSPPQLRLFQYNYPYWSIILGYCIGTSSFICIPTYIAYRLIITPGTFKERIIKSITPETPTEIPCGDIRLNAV

Turning to `CN1CC[C@]2(c3ccc4c(c3)OC(F)(F)O4)CCC(=O)C[C@H]12` (single isomer, unassigned) [Compound 232], at SERT, the “IC50 ratio to (−) mesembrine” value is recorded as less than 5 and the IC50 was less than 50 nM. Consider `COc1ccc([C@@]23CCC(=O)C[C@@H]2N(C)CC3)cc1OC` [Mesembrine], for which, in series [1], the half-life in plasma result was “less than 2 hours”. For the compound `CN1CC[C@@]2(c3ccc4c(c3)OC(F)(F)O4)CCC(=O)C[C@@H]12` (single isomer, unassigned) [Compound 233], on SERT, the “IC50 ratio to (−) mesembrine” value is no less than 100 and the IC50 was 500 to 1500 nM.
